# Measured values: EP4631938A1, “NITROGEN-CONTAINING HETEROCYCLE WITH SEROTONIN RECEPTOR-BINDING ACTIVITY AND CARBOCYCLIC DERIVATIVE” (Shionogi & Co., Ltd, priority 2022, dated 2024)
# Read-outs that look alike come from different tables or passages of the source.
# Legend:
# [1] = target: T1, human recombinant 5-HT2A receptor (Homo sapiens, UniProt P28223); test: Test Example 1-2: 5-HT2A receptor binding inhibition test ([3H]-Ketanserin; non-specific ligand Ketanserin)
# T1 construct: expressed in transfected cells; host or cells: Jump-In HEK cells (membrane preparation)
# Experimental: The Kd value is calculated when the lot of the cell membrane is changed. 1 mmol/L non-specific binding calculating compound dissolved in DMSO or DMSO is previously dispensed to the microplate by 0.5 µL, and the cell membrane is diluted with an Assay buffer. The radioactive ligand solution is diluted step by step, and counts are checked with a liquid scintillator. The Assay buffer containing diluted cell membranes is dispensed by 50 µL/well into the microplate. The radioactive ligand solution is then dispensed by 50 µL/well into the microplate and the plate is sealed. The microplate is allowed to stand for 1.5 hours at room temperature (25°C). During this time, 50 mmol/L Tris-HCl (pH 7.4) is dispensed by 50 µL/well into the UniFilter plate and allowed to stand at 4°C for 1 hour or longer. Thereafter, filtration is performed with a Cell Harvester (PerkinElmer). The radioactive ligand solution is dispensed by 10 µL/well into empty wells of the UniFilter plate. After drying the UniFilter plate at room temperature, MicroScinti20 is dispensed by 50 µL/well into the UniFilter plate, and the plate is sealed. UniFilter plate is allowed to stand at room temperature overnight. The radioactivity of [^3H]-Ketanserin bound to the 5-HT2A receptor is measured using Microbeta2 (PerkinElmer) at a measurement time of 1 min/well. The Saturation curve is drawn from the measured value, and the Kd value is calculated from the slope of the Scatchard Plot.
# A compound solution dissolved in DMSO is dispensed to a microplate by 0.5 µL, and a cell membrane and a hot ligand are each diluted with an Assay buffer. The Assay buffer containing diluted cell membrane is then dispensed by 50 µL/well into the microplate. The radioactive ligand solution is then dispensed by 50 µL/well into the microplate and the plate is sealed. Thereafter, the microplate is allowed to stand at room temperature (25°C) for 1.5 hours. During this time, 50 mmol/L Tris-HCl (pH 7.4) is dispensed by 50 µL/well into the UniFilter plate and allowed to stand at 4°C for 1 hour or longer. Thereafter, filtration is performed with a Cell Harvester (PerkinElmer). After drying the UniFilter plate at room temperature, MicroScinti20 is dispensed by 50 µL/well into the UniFilter plate, and the plate is sealed. UniFilter plate is allowed to stand at room temperature overnight. The radioactivity of [^3H]-Ketanserin bound to the 5-HT2A receptor is measured using Microbeta2 (PerkinElmer) at a measurement time of 1 min/well. Non-specific binding is calculated from the radioactivity of [^3H]-Ketanserin in the presence of 500 µmol/L Ketanserin of unlabeled ligand, and total binding is calculated from the radioactivity of [^3H]-Ketanserin in the absence of the compound of the present invention (Vehicle). Finally, the Ki value is calculated from the dose-response curve.
# (§1) (The binding activity of the compound according to the present invention is calculated from the following binding inhibition rate (%).) Inhibition rate (%) = [1−(c−a)/(b−a)] × 100 [formula] • a; average cpm of non-specific binding • b; average cpm of total binding • c; cpm in the presence of the test compound
# (§2) The compounds of the present invention were tested essentially as described above.
# [2] = target: T2, human recombinant 5-HT2C receptor (Homo sapiens, UniProt P28335); test: Test Example 2: 5-HT2C receptor binding inhibition test ([3H]-Mesulergine; non-specific ligand Serotonin HCl); settings: human serotonin 5-HT2C receptor binding activity
# T2 construct: expressed in transfected cells; host or cells: Jump-In HEK cells (membrane preparation)
# T2 sequence (P28335 33-458): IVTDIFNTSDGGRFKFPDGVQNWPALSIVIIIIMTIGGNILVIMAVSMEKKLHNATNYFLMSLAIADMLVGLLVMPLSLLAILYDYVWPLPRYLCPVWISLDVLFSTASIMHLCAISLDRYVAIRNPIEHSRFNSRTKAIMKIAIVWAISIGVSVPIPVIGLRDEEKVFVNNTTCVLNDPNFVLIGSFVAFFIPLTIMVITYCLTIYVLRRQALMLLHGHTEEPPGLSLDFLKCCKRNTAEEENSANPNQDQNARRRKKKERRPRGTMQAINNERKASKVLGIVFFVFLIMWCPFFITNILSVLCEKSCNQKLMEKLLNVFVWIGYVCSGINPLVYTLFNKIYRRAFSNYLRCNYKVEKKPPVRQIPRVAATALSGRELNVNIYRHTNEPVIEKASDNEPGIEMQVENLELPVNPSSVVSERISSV
# Experimental: The Kd value is calculated when the lot of the cell membrane is changed. 1 mmol/L non-specific binding calculating compound dissolved in DMSO or DMSO is previously dispensed to the microplate by 0.5 µL, and the cell membrane is diluted with an Assay buffer. The radioactive ligand solution is diluted step by step, and counts are checked with a liquid scintillator. The Assay buffer containing diluted cell membranes is dispensed by 50 µL/well into the microplate. The radioactive ligand solution is then dispensed by 50 µL/well into the microplate and the plate is sealed. The microplate is allowed to stand at 37°C for 2 hours. During this time, 50 mmol/L Tris-HCl (pH 7.4) is dispensed by 50 µL/well into the GF/B UniFilter plate and allowed to stand at 4°C for 1 hour or longer. Thereafter, filtration is performed with a Cell Harvester (PerkinElmer). The radioactive ligand solution is dispensed by 10 µL/well into empty wells of the GF/B UniFilter plate. After drying the GF/B UniFilter plate at room temperature, MicroScinti20 is dispensed by 50 µL/well into the GF/B UniFilter plate, and the plate is sealed. GF/B UniFilter plate is allowed to stand at room temperature overnight. The radioactivity of [^3H]-Mesulergine bound to the 5-HT2C receptor is measured using Microbeta2 (PerkinElmer) at a measurement time of 1 min/well. The Saturation curve is drawn from the measured value, and the Kd value is calculated from the slope of the Scatchard Plot.
# A compound solution dissolved in DMSO is dispensed to a microplate by 0.5 µL, and a cell membrane and a hot ligand are each diluted with an Assay buffer. The Assay buffer containing diluted cell membrane is then dispensed by 50 µL/well into the microplate. The radioactive ligand solution is then dispensed by 50 µL/well into the microplate and the plate is sealed. The microplate is then allowed to stand at 37°C for 2 hours. During this time, 50 mmol/L Tris-HCl (pH 7.4) is dispensed by 50 µL/well into the GF/B UniFilter plate and allowed to stand at 4°C for 1 hour or longer. Thereafter, filtration is performed with a Cell Harvester (PerkinElmer). After drying the GF/B UniFilter plate at room temperature, MicroScinti20 is dispensed by 50 µL/well into the GF/B UniFilter plate, and the plate is sealed. GF/B UniFilter plate is allowed to stand at room temperature overnight. The radioactivity of [^3H]-Mesulergine bound to the 5-HT2C receptor is measured using Microbeta2 (PerkinElmer) at a measurement time of 1 min/well. Non-specific binding is calculated from the radioactivity of [^3H]-Mesulergine in the presence of 500 µmol/L Serotonin HCl of unlabeled ligand, and total binding is calculated from the radioactivity of [^3H]-Mesulergine in the absence of the compound of the present invention (Vehicle). Finally, the Ki value is calculated from the dose-response curve.
# as §1, §2
# [3] = [3H]-Ketanserin; non-specific binding with 500 µmol/L Ketanserin; room temperature (25°C), 1.5 hours; read-out: h 5-HT2A Ki
# [4] = read-out: h 5-HT2A Ki; [3H]-Ketanserin; non-specific binding with 500 µmol/L Ketanserin; room temperature (25°C), 1.5 hours
# T1 sequence (P28223 whole entry): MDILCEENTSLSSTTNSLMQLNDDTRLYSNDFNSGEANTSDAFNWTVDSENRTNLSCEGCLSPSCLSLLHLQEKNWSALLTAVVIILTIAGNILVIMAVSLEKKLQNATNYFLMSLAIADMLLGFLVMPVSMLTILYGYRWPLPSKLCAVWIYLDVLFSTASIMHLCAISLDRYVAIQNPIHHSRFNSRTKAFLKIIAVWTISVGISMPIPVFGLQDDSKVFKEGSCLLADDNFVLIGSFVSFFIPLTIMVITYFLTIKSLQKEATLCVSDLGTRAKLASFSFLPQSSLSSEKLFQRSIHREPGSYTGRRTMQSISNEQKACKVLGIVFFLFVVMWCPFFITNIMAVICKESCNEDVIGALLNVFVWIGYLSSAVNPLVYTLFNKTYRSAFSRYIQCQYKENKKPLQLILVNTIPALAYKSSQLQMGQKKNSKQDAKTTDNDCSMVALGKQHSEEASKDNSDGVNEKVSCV
Structure (SMILES),"Ki [1, 3]",Ki [2],"Ki [1, 4]"
COCc1nc(C)c(-c2cc(Nc3ncc(OCCCC(F)(F)F)cc3Cl)ncc2OCCO)c(C)n1 [Compound I-238],5.12 nM,2.64 nM,
COCc1nc(C)c(-c2cc(Nc3ncc(-c4ccc(F)cc4F)cc3Cl)ncc2OCCO)c(C)n1 [Compound I-256],0.5 nM,0.322 nM,
Cc1nc(C)c(-c2cc(Nc3ccc(Cl)cn3)c(F)cc2OCCO)c(C)n1 [Compound I-167],0.511 nM,5.37 nM,
Cc1nc(C)c(-c2cc(Nc3ncc(-c4ccc(F)cc4)cc3C)ncc2OCCO)c(C)n1 [Compound I-318],0.575 nM,1.04 nM,
Cc1cnn(C)c1-c1nc(Nc2ccc(Cl)cc2F)c(F)cc1OCCO [Compound I-282],0.223 nM,6.19 nM,
Cc1nc(C)c(-c2nc(Nc3ccc(-c4ccc(C(F)(F)F)nc4)cn3)c(F)cc2O[C@H](C)CO)c(C)n1 [Compound I-364],3.34 nM,12.2 nM,
COCc1nc(C)c(-c2cc(Nc3ncc(OCC(F)(F)C(F)F)cc3Cl)ncc2OCCO)c(C)n1 [Compound I-333],9.02 nM,4.19 nM,
COCc1nc(C)c(-c2cc(Nc3ncc(-c4ncc(Cl)cn4)cc3Cl)ncc2OCCO)c(C)n1 [Compound I-239],2.3 nM,1.35 nM,
Cn1ncc(Br)c1-c1cc(Nc2ncc(OC(F)(F)F)cc2F)c(F)cc1OCCO [Compound I-168],0.248 nM,0.162 nM,
Cc1nc(COC2CC2)nc(C)c1-c1cc(Nc2ncc(C(F)(F)F)cc2Cl)ncc1OCCO [Compound I-374],0.955 nM,1.8 nM,
COCC(F)(F)COc1nc(C)c(-c2cc(Nc3ncc(C(F)(F)F)cc3Cl)ncc2OCCO)c(C)n1 [Compound I-218],1.22 nM,3.36 nM,
Cc1nc(C)c(-c2cc(Nc3ncc(OC(F)(F)F)cc3F)ncc2O[C@H](C)CO)c(C)n1 [Compound I-392],2.88 nM,12.3 nM,
Cn1ncc(Cl)c1-c1cc(Nc2ccc(Cl)cn2)c(F)cc1OCCO [Compound I-163],0.216 nM,1.26 nM,
Cn1ncc(Br)c1-c1cc(Nc2ncc(Cl)cn2)ncc1OCCO [Compound I-274],0.219 nM,4.5 nM,
COCc1nc(C)c(-c2cc(Nc3ncc(-n4ccc(Cl)n4)cc3Cl)ncc2OCCO)c(C)n1 [Compound I-330],1.74 nM,1.78 nM,
Cn1ncc(Br)c1-c1nc(Nc2ccc(C(F)(F)F)cc2F)ncc1OCCO [Compound I-338],0.223 nM,0.765 nM,
Cc1nc(COC(F)F)nc(C)c1-c1cc(Nc2ncc(C(F)(F)F)cc2Cl)ncc1OCCO [Compound I-203],1.97 nM,1.82 nM,

Structure (SMILES),"Ki [1, 3]",Ki [2],"Ki [1, 4]"
CCc1coc(-c2cnc(Nc3cc(-c4c(C)nc(COC)nc4C)c(OCCO)cn3)c(Cl)c2)n1 [Compound I-331],1.91 nM,1.66 nM,
COCc1nc(C)c(-c2cc(Nc3ncc(-c4nc(C(F)(F)F)co4)cc3Cl)ncc2OCCO)c(C)n1 [Compound I-240],2.05 nM,1.54 nM,
Cc1cnn(C)c1-c1cc(Nc2ncc(OC(F)F)cc2F)ncc1OCCO [Compound I-178],0.386 nM,3.34 nM,
Cc1nc(C)c(-c2nc(Nc3ccc(OC(F)F)cc3)c(F)cc2OCCO)c(C)n1 [Compound I-268],0.958 nM,0.589 nM,
Cc1nc(C)c(-c2cc(Nc3ccc(C4(C(F)(F)F)CC4)cn3)ncc2OCCO)c(C)n1 [Compound I-297],2.07 nM,4.37 nM,
Cn1ncc(Br)c1-c1cc(Nc2ccc(OC(F)F)cn2)ncc1OCCO [Compound I-288],0.387 nM,0.78 nM,
Cn1ncc(Br)c1-c1cc(Nc2ncc(OC(F)(F)F)cn2)ncc1OCCO [Compound I-296],0.349 nM,3.02 nM,
Cn1ncc(Br)c1-c1nc(Nc2ccc(C(F)(F)F)cn2)ncc1OCCO [Compound I-337],0.313 nM,7.18 nM,
COCc1nc(C)c(-c2nc(Nc3cc(-c4ccccc4)no3)c(F)cc2OCCO)c(C)n1 [Compound I-393],17.6 nM,78.9 nM,
Cn1ncc(Br)c1-c1cc(Nc2ccc(OC3CC3)cn2)ncc1OCCO [Compound I-185],0.42 nM,2.76 nM,
Cn1ncc(Br)c1-c1nc(Nc2cnc(C(F)(F)F)nc2)c(F)cc1OCCO [Compound I-289],0.793 nM,60.2 nM,
COCc1nc(C)c(-c2cc(Nc3ncc(OC(C)(F)F)cc3Cl)ncc2OCCO)c(C)n1 [Compound I-266],1.88 nM,2.24 nM,
Cc1nc(C)c(-c2cc(Nc3ncc(C(F)(F)F)cc3F)c(F)cc2OCCO)c(C)n1 [Compound I-146],0.678 nM,,
Cc1nc(C)c(-c2cc(Nc3ncc(OCC(F)(F)C(F)(F)F)cc3Cl)ncc2OCCO)c(C)n1 [Compound I-250],,2.43 nM,
"CC(CO)Oc1cnc(Nc2ncc(C(F)(F)F)cc2F)cc1-c1c(Br)cnn1C (single isomer, unassigned) [Compound I-225]",,,0.396 nM
"CC(CO)Oc1cnc(Nc2ncc(C(F)(F)F)cc2F)cc1-c1c(Br)cnn1C (single isomer, unassigned) [Compound I-224]",,,0.521 nM
Cn1ncc(Br)c1-c1cc(Nc2ncc(Cl)cn2)ccc1OCCO [Compound I-119],0.315 nM,,
